Where no end group is shown, it is not given here.
Experiments:
Hela cells = assay: SPLICS (ER-mitochondria split-GFP) proximity assay; format: cell-based; details: Hela cells transfected with SPLICS vector, 10 mM EtOH, peptide 20 μM, 1 hour, vs control (DW)
Text: To this end, MAM regulatory activity was verified using the SPLICS (ER-mitochondria split-GFP) system, which allows observation of the proximity between intracellular organelles through fluorescence emission. The SPLICS system is a system that can efficiently image the proximity of intracellular organelles based on the principle that split-GFP fluorescence is emitted when two organelles are within approximately 10 to 40 nm of each other. As the two organelles approach, complementation of GFP occurs, resulting in fluorescence at the junction. It is to be noted that increased contact between ER and mitochondria may lead to cellular stress and dysfunction.
First, to observe the change in the distance between the ER and mitochondria due to treatment with the fusion peptides, Hela cells were transfected with the SPLICS vector. Afterwards, the HeLa cells were treated with the fusion peptides and the area (%) of GFP fluorescence relative to the total area per cell was measured. […] That is to say, it was observed from the decrease in green fluorescence in the groups treated with the fusion peptides of the present disclosure that the two organelles were moving apart from each other.

HUVEC cells = assay: MTT assay (cell proliferation); format: cell-based, human; details: 0-300 μM, up to 72 hours
Description: Human umbilical vein endothelial cells (HUVECs) were cultured in EBM-2 medium supplemented with FBS (2%, v/v) and antibiotics. After seeding the cells in a 96-well plate at 3,000 cells/well and culturing the same, they were treated with the prepared fusion peptides on the next day at concentrations of 0, 100, 200, and 300 μM. After 0, 24, 48, and 72 hours, MTT solution (2 mg/mL) was treated at a concentration of 0.4 mg/mL. After culturing for 3 hours, the medium was removed and the cells were treated with DMSO. Then, fluorescence was measured at 540 nm.
Afterwards, 3-[4,5-dimethylthiazol-2-yl]-2,5-diphenyltetrazolium bromide (MTT) assay, which allows observation of cell proliferation by fluorescence, was performed to confirm the optimal concentration of the fusion peptide 4 in the HUVEC cells.

ApoE knockout mice = assay: Atherosclerosis animal model (high-cholesterol diet, ApoE knockout mice); format: in vivo; details: 50 mg/kg intraperitoneally every 2 days for 8 weeks
Description: Animal experiment was performed in accordance with the guidelines approved by the Institutional Animal Care and Use Committee of Yonsei University (IACUC-A-202404-1847-02). 6-week-old male ApoE knockout B6.KOR/StmSlc-Apoeshl mice were housed in a specific pathogen-free system with a 12-hour light-dark cycle with free access to food and water, and randomly divided into three groups (control, positive control, and test groups). Then, the sample was injected intraperitoneally to the control group (vehicle), the positive control group (CTS (cryptotanshinone), 20 mg/kg), and the test group (peptide, 50 mg/kg) once every two days for 8 weeks while feeding the mice with a high-cholesterol diet until the end of the experiment (for 8 weeks).
After sacrificing the mice, PBS perfusion was performed through the left ventricle, and the heart, artery, and blood were obtained. The artery was cut along the bifurcation of the iliac artery, spread out, fixed with pins, and fixed in 10% formaldehyde for 16 hours. After staining with Oil-Red-O for 16 hours, the samples were washed with PBS and images were obtained using a microscope (NS-6T, China).
The fusion peptide 4 (50 mg/kg) was injected intraperitoneally every 2 days for 8 weeks into an animal model of atherosclerosis (high-cholesterol diet, ApoE knockout mice).

Substance | GFP fluorescence signal (area of GFP fluorescence relative to the total area per cell), SPLICS (Hela cells) | cell proliferation (MTT) (HUVEC cells) | body weight (ApoE knockout mice)
YARVRRRGPRR-FSTAADGQTQ (YARVRRRGPRRFSTAADGQTQ) [fusion peptide 1] | significant decrease in fluorescence signals |  | 
YARVRRRGPRR-DTETKME (YARVRRRGPRRDTETKME) [fusion peptide 3] | significant decrease in fluorescence signals |  | 
YARVRRRGPRR-GGG-FSTAADGQTQ (YARVRRRGPRRGGGFSTAADGQTQ) [fusion peptide 2, CPP Hph-1 linked to Peptide 2 (GGG-…), GRP75 motif] | significant decrease in fluorescence signals |  | 
YARVRRRGPRRRSIYYLGIGPT [fusion peptide 4, YARVRRRGPRR-RSIYYLGIGPT] |  | no inhibition of cell proliferation was observed even at concentrations of 100-200 μM | did not affect the body weight
